Assay results reported in ChEMBL document CHEMBL5705896 (ACS Chem Biol, 2013).
The source made the active and inactive calls. No cut-off for these calls is given here.

Tests used:
[1] = target: MAP kinase-activated protein kinase 2 (Homo sapiens) (UniProt P49137); assay: Inhibition of full length human N-terminal GST tagged MAPKAPK2 1 to 400 end residues) expressed in baculovirus expression system using GS as peptide at 10 uM by mobility shift assay relative to control
[2] = target: 5-hydroxytryptamine receptor 1A (Homo sapiens) (UniProt P08908); assay: Inhibition of 5-HT1A receptor (unknown origin) at 10 uM by radioligand binding assay relative to control
[3] = target: Alpha-2A adrenergic receptor (Homo sapiens) (UniProt P08913); assay: Inhibition of Alpha2A receptor (unknown origin) at 10 uM by radioligand binding assay relative to control
[4] = target: N-lysine methyltransferase SMYD2 (Homo sapiens, UniProt Q9NRG4); assay: Inhibition of SMYD2 (unknown origin) using [3H-SAM] as substrate incubated for 1 hr by scintillation proximity assay
[5] = target: Mitogen-activated protein kinase 14 (Homo sapiens) (UniProt Q16539); assay: Inhibition of truncated human N-terminal GST-tagged p38 alpha (9 to 352 residues) expressed in Escherichia coli expression system using modified Erktide as substrate at 10 uM by mobility shift assay relative to control
[6] = target: D(2) dopamine receptor (Homo sapiens) (UniProt P14416); assay: Inhibition of dopamine D2 receptor (unknown origin) at 10 uM by radioligand binding assay relative to control
[7] = target: Serine/threonine-protein kinase Chk1 (Homo sapiens) (UniProt O14757); assay: Inhibition of full length human N-terminal GST tagged CHK1 (1 to 476 end residues) expressed in baculovirus expression system using chk-tide as substrate at 10 uM by mobility shift assay relative to control
[8] = target: CDK2/Cyclin A2 (Homo sapiens) (UniProt P24941+P20248); assay: Inhibition of full length human N-terminal GST tagged CDK2 (1 to 298 residues)/GST tagged CycA2 (1 to 432 end residues) expressed in baculovirus expression system using histone H1 as substrate at 10 uM by mobility shift assay relative to control
[9] = target: Alpha-2B adrenergic receptor (Homo sapiens) (UniProt P18089); assay: Inhibition of Alpha2B receptor (unknown origin) at 10 uM by radioligand binding assay relative to control
[10] = target: Histamine H1 receptor (Homo sapiens) (UniProt P35367); assay: Inhibition of H1 receptor (unknown origin) at 10 uM by radioligand binding assay relative to control
Chain of Histamine H1 receptor (Homo sapiens) (P35367 whole entry, the tested form may be a part): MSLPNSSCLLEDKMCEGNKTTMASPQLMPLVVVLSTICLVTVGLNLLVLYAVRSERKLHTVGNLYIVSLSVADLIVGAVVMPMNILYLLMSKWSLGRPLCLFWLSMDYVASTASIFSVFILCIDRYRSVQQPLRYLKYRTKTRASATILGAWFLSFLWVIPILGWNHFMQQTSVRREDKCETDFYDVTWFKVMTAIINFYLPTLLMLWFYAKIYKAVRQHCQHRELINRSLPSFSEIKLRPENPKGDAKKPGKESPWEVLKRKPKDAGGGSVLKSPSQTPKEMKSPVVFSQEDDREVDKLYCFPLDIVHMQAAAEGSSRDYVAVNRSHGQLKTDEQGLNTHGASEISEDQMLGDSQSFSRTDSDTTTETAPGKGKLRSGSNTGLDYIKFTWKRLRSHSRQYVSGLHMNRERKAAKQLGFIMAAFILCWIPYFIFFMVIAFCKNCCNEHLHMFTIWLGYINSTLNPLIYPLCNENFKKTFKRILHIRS

[11] = target: Hepatocyte growth factor receptor (Homo sapiens) (UniProt P08581); assay: Inhibition of human cytoplasmic domain N-terminal GST tagged MET (956 to 1390 end residues) expressed in baculovirus expression system using Srctide as substrate at 10 uM by mobility shift assay relative to control
Chain of Hepatocyte growth factor receptor (Homo sapiens) (P08581 whole entry, the tested form may be a part): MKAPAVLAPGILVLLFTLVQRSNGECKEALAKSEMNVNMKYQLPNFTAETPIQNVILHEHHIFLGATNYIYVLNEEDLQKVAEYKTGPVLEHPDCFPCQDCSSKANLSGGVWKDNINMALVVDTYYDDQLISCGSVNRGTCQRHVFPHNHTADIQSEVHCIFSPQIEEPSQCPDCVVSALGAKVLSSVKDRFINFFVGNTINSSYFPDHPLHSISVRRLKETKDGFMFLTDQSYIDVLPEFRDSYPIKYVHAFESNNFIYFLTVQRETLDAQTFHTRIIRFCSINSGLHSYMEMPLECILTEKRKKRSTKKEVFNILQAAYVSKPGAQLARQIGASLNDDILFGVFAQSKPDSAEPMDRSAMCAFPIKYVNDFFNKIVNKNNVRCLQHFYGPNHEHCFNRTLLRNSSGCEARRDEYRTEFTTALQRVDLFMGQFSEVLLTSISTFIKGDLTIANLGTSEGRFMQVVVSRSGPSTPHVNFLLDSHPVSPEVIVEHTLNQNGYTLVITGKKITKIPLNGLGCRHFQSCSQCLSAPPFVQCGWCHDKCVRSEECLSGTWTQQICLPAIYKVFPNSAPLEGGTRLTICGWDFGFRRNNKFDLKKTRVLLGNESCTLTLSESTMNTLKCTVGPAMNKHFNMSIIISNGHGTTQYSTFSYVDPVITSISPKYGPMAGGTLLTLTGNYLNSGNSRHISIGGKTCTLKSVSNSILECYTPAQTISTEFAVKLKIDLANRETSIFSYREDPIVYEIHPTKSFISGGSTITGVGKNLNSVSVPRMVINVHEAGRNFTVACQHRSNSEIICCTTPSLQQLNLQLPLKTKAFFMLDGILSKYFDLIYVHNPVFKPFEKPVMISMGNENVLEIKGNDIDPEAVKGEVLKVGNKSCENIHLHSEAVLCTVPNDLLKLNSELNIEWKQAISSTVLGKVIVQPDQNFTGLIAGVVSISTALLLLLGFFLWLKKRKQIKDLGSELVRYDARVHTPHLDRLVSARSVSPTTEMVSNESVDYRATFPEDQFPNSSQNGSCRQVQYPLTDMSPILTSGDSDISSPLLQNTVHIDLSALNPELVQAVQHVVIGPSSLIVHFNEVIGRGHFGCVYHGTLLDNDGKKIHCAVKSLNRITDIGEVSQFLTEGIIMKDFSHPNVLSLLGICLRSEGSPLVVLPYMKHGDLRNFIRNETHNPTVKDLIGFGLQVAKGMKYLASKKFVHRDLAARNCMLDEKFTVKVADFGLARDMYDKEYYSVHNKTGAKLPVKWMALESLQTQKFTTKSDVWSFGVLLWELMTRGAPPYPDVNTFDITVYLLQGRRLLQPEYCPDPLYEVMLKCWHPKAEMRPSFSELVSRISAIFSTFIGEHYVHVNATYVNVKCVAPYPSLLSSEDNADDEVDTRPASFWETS

[12] = target: Histone-lysine N-methyltransferase EHMT1 (Homo sapiens, UniProt Q9H9B1); assay: Inhibition of EHMT1 (unknown origin) using [3H-SAM] as substrate incubated for 1 hr by scintillation proximity assay
[13] = target: D(1A) dopamine receptor (Homo sapiens) (UniProt P21728); assay: Inhibition of dopamine D1 receptor (unknown origin) at 10 uM by radioligand binding assay relative to control
[14] = target: Angiopoietin-1 receptor (Homo sapiens) (UniProt Q02763); assay: Inhibition of human cytoplasmic domain N-terminal GST tagged TIE2 (771 to 1124 end residues) expressed in baculovirus expression system using Blk/lyntide as substrate at 10 uM by mobility shift assay relative to control
[15] = target: Insulin-like growth factor 1 receptor (Homo sapiens) (UniProt P08069); assay: Inhibition of human cytoplasmic domain N-terminal GST tagged IGF1R (959 to 1367 end residues) expressed in baculovirus expression system using IRS1 as substrate at 10 uM by mobility shift assay relative to control
Chain of Insulin-like growth factor 1 receptor (Homo sapiens) (P08069 31-736 limits assumed): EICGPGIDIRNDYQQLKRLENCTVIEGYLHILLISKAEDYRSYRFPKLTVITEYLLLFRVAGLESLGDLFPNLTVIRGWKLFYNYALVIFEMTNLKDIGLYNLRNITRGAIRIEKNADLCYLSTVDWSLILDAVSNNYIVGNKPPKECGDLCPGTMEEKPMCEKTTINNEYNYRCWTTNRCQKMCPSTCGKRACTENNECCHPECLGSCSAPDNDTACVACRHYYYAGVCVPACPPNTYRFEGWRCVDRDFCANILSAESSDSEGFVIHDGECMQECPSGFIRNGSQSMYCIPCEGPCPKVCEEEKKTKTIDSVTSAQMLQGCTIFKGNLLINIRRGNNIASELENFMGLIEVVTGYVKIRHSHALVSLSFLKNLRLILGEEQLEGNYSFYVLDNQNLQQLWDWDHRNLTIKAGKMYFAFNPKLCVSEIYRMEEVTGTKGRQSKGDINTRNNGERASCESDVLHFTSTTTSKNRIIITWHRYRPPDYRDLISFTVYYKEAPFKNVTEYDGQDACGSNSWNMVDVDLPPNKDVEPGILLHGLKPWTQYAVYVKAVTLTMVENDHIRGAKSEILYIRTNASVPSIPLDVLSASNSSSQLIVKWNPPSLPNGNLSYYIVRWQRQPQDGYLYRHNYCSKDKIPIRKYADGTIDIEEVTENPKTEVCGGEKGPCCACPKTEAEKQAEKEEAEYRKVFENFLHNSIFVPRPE
Chain of Insulin-like growth factor 1 receptor (Homo sapiens) (P08069 741-1367 limits assumed): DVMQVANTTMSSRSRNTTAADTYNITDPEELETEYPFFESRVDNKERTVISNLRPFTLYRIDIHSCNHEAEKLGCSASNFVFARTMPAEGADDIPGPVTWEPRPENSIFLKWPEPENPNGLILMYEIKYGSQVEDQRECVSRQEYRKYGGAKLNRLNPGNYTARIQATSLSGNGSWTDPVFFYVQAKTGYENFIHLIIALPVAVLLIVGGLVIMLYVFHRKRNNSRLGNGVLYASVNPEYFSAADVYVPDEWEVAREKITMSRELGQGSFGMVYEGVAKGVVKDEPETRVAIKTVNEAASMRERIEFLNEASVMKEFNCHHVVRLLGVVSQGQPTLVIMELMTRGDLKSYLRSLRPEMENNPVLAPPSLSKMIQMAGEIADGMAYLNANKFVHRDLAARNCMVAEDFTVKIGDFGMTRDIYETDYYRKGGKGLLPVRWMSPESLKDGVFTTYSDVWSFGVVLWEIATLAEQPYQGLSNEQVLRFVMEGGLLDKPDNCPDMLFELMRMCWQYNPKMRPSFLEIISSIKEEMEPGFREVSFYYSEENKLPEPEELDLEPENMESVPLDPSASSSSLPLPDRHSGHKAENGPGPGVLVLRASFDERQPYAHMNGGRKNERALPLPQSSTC

DB [16] = assay: Downregulation of H3K27me3 level in human DB cells at 3000 nM measured after 3 days; assay type: functional, cell-based; conditions: time 3.0 day
DB [17] = assay: Downregulation of EZH2 level in human DB cells at 3000 nM measured after 3 days; assay type: functional, cell-based; conditions: time 3.0 day
[18] = target: Histone-lysine N-methyltransferase KMT5C (Homo sapiens, UniProt Q86Y97); assay: Inhibition of SUV420H2 (unknown origin) using [3H-SAM] as substrate incubated for 1 hr by scintillation proximity assay
[19] = target: Serine/threonine-protein kinase Sgk1 (Homo sapiens) (UniProt O00141); assay: Inhibition of truncated human N-terminal GST-tagged SGK (61 to 431 end residues) expressed in baculovirus expression system using SGKtide as substrate at 10 uM by mobility shift assay relative to control
[20] = Toxicity in Swiss albino mouse assessed as adverse effect at 15 to 150 mg/kg administered as single ip dose measured upto 24 hrs; assay type: organism-based; conditions: in vivo, dose 15-150 mg/kg
[21] = Inhibition of human catalytic domain N-terminal GST tagged p70S6K (1 to 421 residues) expressed in baculovirus expression system using S6K2 peptide as substrate at 10 uM by mobility shift assay relative to control; conditions: condition weaver syndrome
[22] = target: Histone-lysine N-methyltransferase EZH2 (Homo sapiens, UniProt Q15910, Y641F); assay: Inhibition of EZH2 Y641F mutant (unknown origin) using HMT as substrate incubated for 60 mins by luminescence based analysis
[23] = target: Testis-specific serine/threonine-protein kinase 1 (Homo sapiens) (UniProt Q9BXA7); assay: Inhibition of full length human N-terminal GST tagged TSSK1 (1 to 367 end residues) expressed in baculovirus expression system using GS as peptide at 10 uM by mobility shift assay relative to control
Histamine H3 receptor = Histamine H3 receptor (Homo sapiens, UniProt Q9Y5N1)
Description: Binding affinity to H3 receptor (unknown origin) assessed as inhibition constant

[24] = target: Sodium-dependent serotonin transporter (Homo sapiens) (UniProt P31645); assay: Inhibition of SERT (unknown origin) at 10 uM by radioligand binding assay relative to control
Chain of Sodium-dependent serotonin transporter (Homo sapiens) (P31645 whole entry, looked up, the tested form may be a part): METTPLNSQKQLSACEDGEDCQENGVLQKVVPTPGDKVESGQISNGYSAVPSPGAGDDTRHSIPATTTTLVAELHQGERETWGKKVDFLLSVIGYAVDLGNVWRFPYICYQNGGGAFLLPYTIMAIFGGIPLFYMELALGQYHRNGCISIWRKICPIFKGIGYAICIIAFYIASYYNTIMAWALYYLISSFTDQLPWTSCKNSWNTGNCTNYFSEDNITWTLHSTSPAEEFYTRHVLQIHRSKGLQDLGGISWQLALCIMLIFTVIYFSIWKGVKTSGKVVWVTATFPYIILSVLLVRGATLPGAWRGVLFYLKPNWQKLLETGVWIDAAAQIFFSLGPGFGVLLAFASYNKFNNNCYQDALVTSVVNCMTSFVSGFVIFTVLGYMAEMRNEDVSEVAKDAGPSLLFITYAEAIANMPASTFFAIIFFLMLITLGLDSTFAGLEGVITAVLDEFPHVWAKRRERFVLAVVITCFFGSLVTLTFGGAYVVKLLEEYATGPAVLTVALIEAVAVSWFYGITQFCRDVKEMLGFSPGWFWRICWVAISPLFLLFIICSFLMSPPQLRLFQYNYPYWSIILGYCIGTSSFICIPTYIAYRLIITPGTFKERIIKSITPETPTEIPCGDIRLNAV

[25] = target: Ephrin type-A receptor 2 (Homo sapiens) (UniProt P29317); assay: Inhibition of human cytoplasmic domain N-terminal GST tagged EPHA2 (572 to 976 end residues) expressed in baculovirus expression system using Blk/lyntide as substrate at 10 uM by mobility shift assay relative to control
[26] = target: N-lysine methyltransferase KMT5A (Homo sapiens, UniProt Q9NQR1); assay: Inhibition of SETD8 (unknown origin) using [3H-SAM] as substrate incubated for 1 hr by scintillation proximity assay
[27] = target: RAC-alpha serine/threonine-protein kinase (Homo sapiens) (UniProt P31749); assay: Inhibition of human catalytic domain N-terminal GST tagged AKT1 (104 to 480 end residues) expressed in baculovirus expression system using crosstide as substrate at 10 uM by mobility shift assay relative to control
Chain of RAC-alpha serine/threonine-protein kinase (Homo sapiens) (P31749 whole entry, the tested form may be a part): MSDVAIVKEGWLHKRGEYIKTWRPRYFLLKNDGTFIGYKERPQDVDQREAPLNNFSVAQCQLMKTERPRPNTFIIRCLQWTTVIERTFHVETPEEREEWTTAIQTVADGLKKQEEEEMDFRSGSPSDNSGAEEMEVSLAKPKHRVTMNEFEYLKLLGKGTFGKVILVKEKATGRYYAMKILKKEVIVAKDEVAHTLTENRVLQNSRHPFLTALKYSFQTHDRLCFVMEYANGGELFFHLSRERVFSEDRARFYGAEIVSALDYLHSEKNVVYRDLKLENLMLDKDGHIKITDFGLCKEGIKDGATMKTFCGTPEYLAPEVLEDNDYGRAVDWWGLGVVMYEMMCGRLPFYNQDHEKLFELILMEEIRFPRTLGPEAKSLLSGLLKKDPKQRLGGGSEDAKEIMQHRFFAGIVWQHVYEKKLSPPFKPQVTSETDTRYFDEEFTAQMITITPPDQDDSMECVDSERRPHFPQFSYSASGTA

[28] = target: Tyrosine-protein kinase CSK (Homo sapiens) (UniProt P41240); assay: Inhibition of full length human N-terminal GST tagged CSK (1 to 450 end residues) expressed in baculovirus expression system using Srctide as substrate at 10 uM by mobility shift assay relative to control
[29] = target: Alpha-2C adrenergic receptor (Homo sapiens) (UniProt P18825); assay: Inhibition of Alpha2C receptor (unknown origin) at 10 uM by radioligand binding assay relative to control

Chain of MAP kinase-activated protein kinase 2 (Homo sapiens) (P49137 whole entry, looked up): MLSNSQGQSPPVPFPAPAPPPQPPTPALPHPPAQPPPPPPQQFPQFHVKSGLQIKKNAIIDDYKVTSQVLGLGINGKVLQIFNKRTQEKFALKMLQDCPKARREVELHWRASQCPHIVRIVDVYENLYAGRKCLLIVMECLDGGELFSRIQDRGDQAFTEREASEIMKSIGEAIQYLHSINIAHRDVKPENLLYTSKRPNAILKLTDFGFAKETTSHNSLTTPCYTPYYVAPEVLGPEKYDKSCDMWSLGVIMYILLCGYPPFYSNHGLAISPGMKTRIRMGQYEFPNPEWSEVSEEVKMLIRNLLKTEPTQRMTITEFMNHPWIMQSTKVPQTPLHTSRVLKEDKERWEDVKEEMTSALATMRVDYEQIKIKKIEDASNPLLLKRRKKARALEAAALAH

Compound `CCCc1cc(C)[nH]c(=O)c1CNC(=O)c1cc(-c2ccc(N3CCN(C(C)C)CC3)nc2)cc2c1cnn2C(C)C` has an inhibition [1] of 4%, an inhibition [2] of 11% and an inhibition [3] of 14%. The IC50 [4] was greater than 100 µM, the inhibition [5] was 0% and the inhibition [6] was 9%. The inhibition [7] was -2%, the inhibition [8] was -3% and the inhibition [9] was 48%. It also gave an inhibition [10] of 16%, an inhibition [11] of -3% and an IC50 [12] greater than 100 µM. For the same compound, the inhibition [13] was 13%, the inhibition [14] was -6% and the inhibition [15] was -7%. For the same compound, the Activity (DB [16]) was “Active”, the Activity (DB [17]) was “inactive” and the IC50 [18] was greater than 100 µM. For the same compound, the inhibition [19] was -3%, the Activity [20] was “Non-Toxic” and the inhibition at 10 µM [21] was 6%. The IC50 [22] was less than 0.015 µM, the inhibition [23] was 5% and the Ki (Histamine H3 receptor) was 0.3 µM. The inhibition [24] was 6%, the inhibition [25] was -6% and the IC50 [26] was greater than 100 µM. For the same compound, the inhibition [27] was -6%, the inhibition [28] was -4% and the inhibition [29] was 47%.
